From patent US6342537B1, “Gel for treatment of skin diseases and for disinfection of the skin” (priority 1994, dated 2002)
Values joined by “and” are separate entries in the source; they are usually repeats but may differ in a detail not shown here. Equal entries are not always repeated.

System: herpes simplex virus (HSV) type 1
Experiment: Inactivation of herpes simplex virus in infected MRC-5 cells by alcohols (Example 25); for HSV - CPE after 44 hours with the detecting cell-layer: key: 0: no CPE; 1: a few; 2: several; 3: all cells infected with HSV
Format: cell-based
Conditions: for HSV - CPE after 44 hours with the detecting cell-layer: duplicate wells; for inactivation of herpes simplex virus (in words): HSV type 1 infected MRC-5 cells
Protocol: Ethanol is an accepted disinfectant for viruses with an envelope. The purpose of this study was to measure the inactivating effect of “short-chained alcohols” on virus-infected cells.
Four 96 well plates with confluent MRC-5 cell were infected with herpes simplex virus (HSV) type 1. After appearance of 50% cytopathic effect (CPE), the culture medium was removed, and rows of 12 wells were treated with 25 μl/well of the alcohols or buffer after the following scheme: The first row with undiluted, and the following with 96%, 90%, 80%, 70%, 60% and 50% alcohol, respectively—all dilutions performed in buffer (PBS). To the last row was added buffer. After 2, 4, 8, 16 and 32 min, respectively, two wells in each row were emptied and the cells overlaid with PBS. The plate was then frozen at —80° C. Afterwards the wells were seeded with a detection layer of MRC-5 cells and the plates were placed at 37° C. for 44 hours. Virus surviving the treatment with alcohol was detected by the appearance of CPE, characteristic for HSV in the detection monolayer.

[1] = alcohol undiluted, 2 min with alcohol

Structure (SMILES) | HSV - CPE after 44 hours with the detecting cell-layer (50% alcohol in PBS, 2 min) | HSV - CPE after 44 hours with the detecting cell-layer (50% alcohol in PBS, 4 min) | HSV - CPE after 44 hours with the detecting cell-layer (50% alcohol in PBS, 8 min) | HSV - CPE after 44 hours with the detecting cell-layer (50% alcohol in PBS, 16 min) | HSV - CPE after 44 hours with the detecting cell-layer (50% alcohol in PBS, 32 min) | HSV - CPE after 44 hours with the detecting cell-layer (60% alcohol in PBS, 2 min) | HSV - CPE after 44 hours with the detecting cell-layer (60% alcohol in PBS, 4 min) | HSV - CPE after 44 hours with the detecting cell-layer (60% alcohol in PBS, 8 min) | HSV - CPE after 44 hours with the detecting cell-layer (60% alcohol in PBS, 16 min) | HSV - CPE after 44 hours with the detecting cell-layer (60% alcohol in PBS, 32 min) | HSV - CPE after 44 hours with the detecting cell-layer (70% alcohol in PBS, 2 min) | HSV - CPE after 44 hours with the detecting cell-layer (70% alcohol in PBS, 4 min) | HSV - CPE after 44 hours with the detecting cell-layer (70% alcohol in PBS, 8 min) | HSV - CPE after 44 hours with the detecting cell-layer (70% alcohol in PBS, 16 min) | HSV - CPE after 44 hours with the detecting cell-layer (70% alcohol in PBS, 32 min) | HSV - CPE after 44 hours with the detecting cell-layer (80% alcohol in PBS, 2 min) | HSV - CPE after 44 hours with the detecting cell-layer (80% alcohol in PBS, 4 min) | HSV - CPE after 44 hours with the detecting cell-layer (80% alcohol in PBS, 8 min) | HSV - CPE after 44 hours with the detecting cell-layer (80% alcohol in PBS, 16 min) | HSV - CPE after 44 hours with the detecting cell-layer (80% alcohol in PBS, 32 min) | also measured
CCO [Ethanol] | 3 | 3 | 3 | 3 | 3 | 3 | 3 | 3 | 3 | 3 | 3 | 3 | 3 | 3 | 3 | 2 | 2 | 2 | 2 | 2 | HSV - CPE after 44 hours with the detecting cell-layer (90% alcohol in PBS, 2 min): 1; HSV - CPE after 44 hours with the detecting cell-layer (90% alcohol in PBS, 4 min): 1 and 0; HSV - CPE after 44 hours with the detecting cell-layer (90% alcohol in PBS, 8 min): 0; HSV - CPE after 44 hours with the detecting cell-layer (90% alcohol in PBS, 16 min): 0; HSV - CPE after 44 hours with the detecting cell-layer (90% alcohol in PBS, 32 min): 0; HSV - CPE after 44 hours with the detecting cell-layer (96% alcohol in PBS, 2 min): 1; HSV - CPE after 44 hours with the detecting cell-layer (96% alcohol in PBS, 4 min): 1 and 0; HSV - CPE after 44 hours with the detecting cell-layer (96% alcohol in PBS, 8 min): 0; HSV - CPE after 44 hours with the detecting cell-layer (96% alcohol in PBS, 16 min): 0; HSV - CPE after 44 hours with the detecting cell-layer (96% alcohol in PBS, 32 min): 0; inactivation of herpes simplex virus (in words): able to inactivate herpes simplex virus even intracellular virus; HSV - CPE after 44 hours with the detecting cell-layer [1]: 0; HSV - CPE after 44 hours with the detecting cell-layer (alcohol undiluted, 4 min): 0; HSV - CPE after 44 hours with the detecting cell-layer (alcohol undiluted, 8 min): 0; HSV - CPE after 44 hours with the detecting cell-layer (alcohol undiluted, 16 min): 0; HSV - CPE after 44 hours with the detecting cell-layer (alcohol undiluted, 32 min): 0
CC(C)O [Isopropanol] | 3 and 2 | 3 and 2 | 3 | 3 and 2 | 3 | 2 | 1 | 2 and 1 | 2 and 3 | 3 | 2 | 1 | 1 and 0 | 1 | 0 and 2 | 1 | 0 and 1 | 1 | 0 and 1 | 1 and 3 | HSV - CPE after 44 hours with the detecting cell-layer (90% alcohol in PBS, 2 min): 0 and 1; HSV - CPE after 44 hours with the detecting cell-layer (90% alcohol in PBS, 4 min): 0; HSV - CPE after 44 hours with the detecting cell-layer (90% alcohol in PBS, 8 min): 0; HSV - CPE after 44 hours with the detecting cell-layer (90% alcohol in PBS, 16 min): 0; HSV - CPE after 44 hours with the detecting cell-layer (90% alcohol in PBS, 32 min): 0; HSV - CPE after 44 hours with the detecting cell-layer (96% alcohol in PBS, 2 min): 0; HSV - CPE after 44 hours with the detecting cell-layer (96% alcohol in PBS, 4 min): 0; HSV - CPE after 44 hours with the detecting cell-layer (96% alcohol in PBS, 8 min): 0; HSV - CPE after 44 hours with the detecting cell-layer (96% alcohol in PBS, 16 min): 0; HSV - CPE after 44 hours with the detecting cell-layer (96% alcohol in PBS, 32 min): 0; inactivation of herpes simplex virus (in words): able to inactivate herpes simplex virus even intracellular virus; HSV - CPE after 44 hours with the detecting cell-layer [1]: 0; HSV - CPE after 44 hours with the detecting cell-layer (alcohol undiluted, 4 min): 0; HSV - CPE after 44 hours with the detecting cell-layer (alcohol undiluted, 8 min): 0; HSV - CPE after 44 hours with the detecting cell-layer (alcohol undiluted, 16 min): 0; HSV - CPE after 44 hours with the detecting cell-layer (alcohol undiluted, 32 min): 0
CO [Methanol] | 1 and 0 | 1 | 1 and 2 | 2 | 1 | 1 | 0 and 1 | 1 | 0 and 1 | 1 | 1 | 1 | 1 | 1 | 0 and 1 | 1 | 0 | 1 | 0 and 1 | 1 and 0 | HSV - CPE after 44 hours with the detecting cell-layer (90% alcohol in PBS, 2 min): 0; HSV - CPE after 44 hours with the detecting cell-layer (90% alcohol in PBS, 4 min): 0; HSV - CPE after 44 hours with the detecting cell-layer (90% alcohol in PBS, 8 min): 0 and 1; HSV - CPE after 44 hours with the detecting cell-layer (90% alcohol in PBS, 16 min): 1; HSV - CPE after 44 hours with the detecting cell-layer (90% alcohol in PBS, 32 min): 1 and 0; HSV - CPE after 44 hours with the detecting cell-layer (96% alcohol in PBS, 2 min): 0; HSV - CPE after 44 hours with the detecting cell-layer (96% alcohol in PBS, 4 min): 0; HSV - CPE after 44 hours with the detecting cell-layer (96% alcohol in PBS, 8 min): 0; HSV - CPE after 44 hours with the detecting cell-layer (96% alcohol in PBS, 16 min): 0 and 1; HSV - CPE after 44 hours with the detecting cell-layer (96% alcohol in PBS, 32 min): 1 and 0; inactivation of herpes simplex virus (in words): able to inactivate herpes simplex virus even intracellular virus; HSV - CPE after 44 hours with the detecting cell-layer [1]: 0; HSV - CPE after 44 hours with the detecting cell-layer (alcohol undiluted, 4 min): 0; HSV - CPE after 44 hours with the detecting cell-layer (alcohol undiluted, 8 min): 0; HSV - CPE after 44 hours with the detecting cell-layer (alcohol undiluted, 16 min): 0; HSV - CPE after 44 hours with the detecting cell-layer (alcohol undiluted, 32 min): 0
